# Earlier results, collected in patent US8197795B2, “Method for monitoring early treatment response” (Receptomon, LLC, priority 2004, dated 2012).
# Columns and labels:
# [1] = system: xenograft models, including colon cancer, non-small cell lung cancer (NSCLC), and prostate cancer; conditions: Ranson et al.
# NSCLC = NSCLC patients treated with gefitinib; Lynch et al. 2004
# solid, malignant tumors = conditions: patients with solid, Ranson et al. 2002
structure (smiles),measurement,setting,value
COc1cc2ncnc(Nc3ccc(F)c(Cl)c3)c2cc1OCCCN1CCOCC1 [gefitinib],activity in xenograft models,[1],active
same,patients with a rapid and often dramatic clinical response,NSCLC,about 10%
same,activity in patients,"solid, malignant tumors",active
